Legend:
heteromeric hASIC1a+3 = target: T1, heteromeric hASIC1a+3 (Homo sapiens, UniProt P78348+Q9UHC3); experiment: Whole-cell patch clamp of HEK293 cells co-expressing hASIC1a and hASIC3; assay type: cell-based; set-up: expressed in transfected cells; host or cells: HEK293; conditions: 10 μM, HEK293, -60 mV, pH 7.4 to pH 6.5 for 5 sec, n=3
T1 sequence (P78348 1-528): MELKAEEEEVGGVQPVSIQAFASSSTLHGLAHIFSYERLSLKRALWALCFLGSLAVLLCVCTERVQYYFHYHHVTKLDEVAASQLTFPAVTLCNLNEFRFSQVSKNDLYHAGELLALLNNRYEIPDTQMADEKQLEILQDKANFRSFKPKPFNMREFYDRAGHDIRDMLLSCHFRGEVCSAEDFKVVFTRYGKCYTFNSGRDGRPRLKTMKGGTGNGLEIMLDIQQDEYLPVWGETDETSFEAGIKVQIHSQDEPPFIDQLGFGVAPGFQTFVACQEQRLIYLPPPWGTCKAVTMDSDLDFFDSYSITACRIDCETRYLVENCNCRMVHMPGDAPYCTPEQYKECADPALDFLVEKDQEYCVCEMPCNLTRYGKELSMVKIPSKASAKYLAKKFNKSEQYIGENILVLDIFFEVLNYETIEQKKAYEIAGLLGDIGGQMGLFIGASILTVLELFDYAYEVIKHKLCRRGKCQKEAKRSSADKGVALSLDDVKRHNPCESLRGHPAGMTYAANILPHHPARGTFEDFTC
T1 sequence (Q9UHC3 1-531): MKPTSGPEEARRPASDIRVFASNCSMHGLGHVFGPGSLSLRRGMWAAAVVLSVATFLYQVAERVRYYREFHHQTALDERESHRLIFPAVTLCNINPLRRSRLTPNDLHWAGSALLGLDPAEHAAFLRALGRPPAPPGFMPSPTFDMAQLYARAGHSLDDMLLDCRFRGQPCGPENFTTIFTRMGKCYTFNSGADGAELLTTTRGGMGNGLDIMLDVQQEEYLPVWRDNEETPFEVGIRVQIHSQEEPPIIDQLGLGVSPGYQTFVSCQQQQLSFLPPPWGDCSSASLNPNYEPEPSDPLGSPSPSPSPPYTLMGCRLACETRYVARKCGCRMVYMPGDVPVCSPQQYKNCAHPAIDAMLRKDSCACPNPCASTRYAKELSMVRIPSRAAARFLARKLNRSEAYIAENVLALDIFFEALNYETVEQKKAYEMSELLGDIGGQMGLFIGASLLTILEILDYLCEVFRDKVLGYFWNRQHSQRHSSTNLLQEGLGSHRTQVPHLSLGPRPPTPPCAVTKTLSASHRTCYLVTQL
Protocol: HEK293 cells were transfected either with hASIC1a alone or co-transfected with hASIC1a and hASIC3. Acid-induced inward currents were recorded in the presence and absence of compound A (10 μM) using the whole-cell configuration of the patch-clamp method (voltage clamp mode).
All experiments are performed at room temperature (20-25° C.) in voltage clamp using conventional whole cell patch clamp methods (Neher, E., et al. (1978) Pfluegers Arch 375:219-228).
Coverslips with the cells are transferred to a 15 μl experimental chamber mounted on the stage of an inverted microscope (IMT-2, Olympus) supplied with Nomarski optics. […] The cells are held at a holding voltage of −60 mV and at the start of each experiment the current is continuously measured for 45 s to ensure a stable baseline. […] Current amplitudes are measured at the peak of the responses, and effect of the compounds is calculated as the amplitude at compound equilibrium divided by the amplitude of the current evoked by the pulse just before the compound was included. […]
FIGS. 4A and 4B show response to acidic saline in the absence or presence of 10 μM of Compound A recorded from HEK293 cells expressing either hASIC1a alone or HEK293 cells co-expressing hASIC1a and hASIC3 [voltage clamped at −60 mV, extracellular solution surrounding cells was changed rapidly from pH 7.4 to pH 6.5 for 5 sec] […]

[1] = Plasma level after administration in the formalin experiments; assay type: in vivo; conditions: plasma level 1.5 h after compound administration, i.p., rat

effect on acid-induced inward current, hASIC1a and hASIC3 co-expressed (heteromeric hASIC1a+3): effectively modulates the activity
SMILES: COc1ccc(F)cc1-c1cc2c(c3c1CCN(C)C3)NC(=O)/C2=N/O [Compound A, 5-(5-fluoro-2-methoxyphenyl)-6,7,8,9-tetrahydro-3-(hydroxyimino)-8-methyl-1H-pyrrolo[3,2-h]isoquinoline-2(3H)-one]
relationship between dose and plasma level [1]: linear relationship between dose and plasma exposure

From US7718641B2, “Pyrrolo [3,4-H] isoquinoline compounds and methods for modulating gated ion channels” (Aros Pharma ApS, priority 2005, dated 2010)
